Data from patent US10401298B2, “Label-free detection of small and large molecule interactions, and activities in biological systems” (Arizona Board of Regents on behalf of Arizona State …, priority 2014, dated 2019).
Like-named read-outs stand apart in the source and are kept apart here.

Columns and labels:
[1] = biological target: human α4β2 nicotinic acetylcholine receptors (nAChRs) (Homo sapiens, UniProt P17787+P43681); settings: FIG. 5F, 100 nM Acetylcholine
Source text: The edge of a cell 5 can be manually defined from the optical image of the cell, but an imaging processing algorithm can automatically detect the cell edge, providing high throughput. After determining the cell edge, a region of interest (ROI) is selected at a location of the cell edge. The ROI can be a rectangular shape30 with the cell edge 32 passing through the center portion of the rectangle, dividing the rectangle into two equal halves, one half 34 is inside of the cell, and the second half 36 falls outside of the cell. We denote the intensities of the two halves of the differential image as A and B, and (A−B)/(A+B) is calculated and used to determine the movement of the cell edge at each location. […]
The relation between the cell edge movement and the measured differential image intensity change from one of the above differential optical detection method can be determined as below. […] The edge of one cell is manually chosen and the centroid (O) of the cell is determined (FIGS. 1B and 1C). […] The cell edge movement was calculated at every 10 starting from 0 (FIG. 1E). The ROI at a certain point of the cell edge (point A) is then shifted by different numbers of pixels outwards (perpendicular to the tangential line at point A), and the corresponding changes in the differential image intensity is determined from the image. […]

[2] = test system: wild type SH-EP1 cells; test: Control: response of wild type SH-EP1 cells (no nAChRs expressed) to acetylcholine; type: binding, human; settings: wild type SH-EP1 cells without nAChRs, 500 nM acetylcholine
Source text: H are shown. The scale bar is 20 μm.
Curve 370 represents the measurements for cell G and lighter curve 370 represents the measurements for cell H.

Chain of human α4β2 nicotinic acetylcholine receptors (nAChRs) (P43681 29-627 limits assumed): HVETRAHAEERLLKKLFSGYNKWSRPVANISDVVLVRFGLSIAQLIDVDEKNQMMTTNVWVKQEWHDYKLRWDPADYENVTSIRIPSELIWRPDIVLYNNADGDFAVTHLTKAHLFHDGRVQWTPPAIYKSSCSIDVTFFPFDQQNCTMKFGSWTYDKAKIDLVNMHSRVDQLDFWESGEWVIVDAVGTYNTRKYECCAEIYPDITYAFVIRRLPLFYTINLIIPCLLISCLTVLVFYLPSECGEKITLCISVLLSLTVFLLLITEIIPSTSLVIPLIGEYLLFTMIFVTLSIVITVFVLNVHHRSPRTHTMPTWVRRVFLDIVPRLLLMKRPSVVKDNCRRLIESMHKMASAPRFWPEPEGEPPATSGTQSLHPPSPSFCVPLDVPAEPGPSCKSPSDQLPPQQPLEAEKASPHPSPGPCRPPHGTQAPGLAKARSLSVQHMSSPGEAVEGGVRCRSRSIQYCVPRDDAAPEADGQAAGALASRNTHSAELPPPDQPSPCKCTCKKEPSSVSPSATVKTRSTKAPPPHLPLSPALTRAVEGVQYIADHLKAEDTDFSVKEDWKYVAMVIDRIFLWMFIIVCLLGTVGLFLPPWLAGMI
Chain of human α4β2 nicotinic acetylcholine receptors (nAChRs) (P17787 26-502): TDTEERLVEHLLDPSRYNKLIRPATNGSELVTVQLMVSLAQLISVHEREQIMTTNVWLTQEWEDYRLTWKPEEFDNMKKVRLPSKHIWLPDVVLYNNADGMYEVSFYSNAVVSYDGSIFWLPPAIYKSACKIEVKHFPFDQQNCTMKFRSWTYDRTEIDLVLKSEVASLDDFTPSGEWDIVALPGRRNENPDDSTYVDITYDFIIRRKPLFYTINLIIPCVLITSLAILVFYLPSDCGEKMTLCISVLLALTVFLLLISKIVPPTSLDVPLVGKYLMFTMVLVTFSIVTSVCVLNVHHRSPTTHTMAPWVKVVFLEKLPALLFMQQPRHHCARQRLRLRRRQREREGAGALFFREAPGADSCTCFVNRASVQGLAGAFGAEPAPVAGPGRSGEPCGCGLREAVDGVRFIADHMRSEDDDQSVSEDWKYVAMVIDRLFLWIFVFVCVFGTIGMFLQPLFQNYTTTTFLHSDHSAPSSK

Which results are given for `CC(=O)OCC[N+](C)(C)C.[Cl-]` [acetylcholine, acetylcholine chloride]?
amount of cell membrane deformation after acetylcholine binding ([1]; lower end of range, at region 592): about −40 nm; amount of cell membrane deformation after acetylcholine binding ([1]; upper end of range, at arrow 590): about 80 nm; deformation in the cell membrane [2]: no deformation
